# Test results reported in patent US20240268372A1, “Methods and Compositions for Extending Organ and Tissue Preservation” (The General Hospital Corporation, priority 2021, published 2024).
# Columns and labels:
# [1] = system: rodent LT models; conditions: drug given at the time of liver procurement; cited from earlier work
# [2] = system: discarded DCD human livers; assay: H&E histology of liver biopsies during NMP; conditions: EM, IHF and AHF livers
# Description: Histology and immunohistochemistry: Core needle biopsies taken from the right liver lobe at indicated intervals were fixed in formalin and embedded in paraffin. Hematoxylin and eosin (H&E) stains were performed on all biopsies to assess the degree of necrosis, inflammatory cell infiltrate, and reperfusion injury using a validated scoring system (see, e.g., ref. 17). Immunohistochemistry for LC3 was performed as previously described (see, e.g., ref. 3).
# [3] = system: discarded DCD human livers; assay: Western immunoblot and LC3B immunohistochemistry of liver biopsies during NMP (UPR, autophagy, necroptosis)
# Description: Sequential wedge biopsies from the right lobe of each liver were performed at indicated intervals, flash frozen in liquid nitrogen, and stored at −80° C. Tissue samples (20 mg) were homogenized and Western immunoblots performed as previously described (see, e.g., ref. 16). A full list of antibodies used is provided below in Table 3.
# To compare target protein expression, densitometry quantification was conducted. Both proteins varied across samples and the changes were not consistent between the 2 proteins, with the variation representing the biologic variability in the human liver.
# In brief, immunohistochemistry was performed using antibodies directed toward LC3B (Product No. NB100-2220, Novus Biologicals, Littleton, CO, USA). Paraffin sections (6 μm) were deparaffinized with xylene and rehydrated with graded ethanol. Antigen retrieval was performed by sub-boiling in 1×-diluted Dako Target Retrieval Solution for 10 min (DakoCytomation, Inc., Carpinteria, CA). Slides were then quenched in 3% H2O2 and blocked in 2.5% Normal Horse Serum (Vector Labs, Burlingame, CA) before overnight incubation in primary antibody (1:200 dilution) at 4° C. Slides were incubated with a horseradish-peroxidase conjugated secondary rabbit antibody (Vector Laboratories) for 1 hr prior to staining with DAB (Vector Laboratories). Slides were counterstained with hematoxylin. Omission of the primary antibody served as a negative control.
# [4] = system: discarded DCD human livers; assay: Perfusate plasma apoptosis biomarkers, cell-free DNA and cytokines during liver NMP (ELISA kits)
# Description: With respect to the experimental group (emricasan, EM), 5 consecutive human livers turned down for transplant were enrolled. Emricasan, also known as IDN-6556 (MedChemExpress, Monmouth Junction, NJ), dissolved in DMSO was added to the circulating perfusate prior to initiation of liver perfusion at a dose of 5 mg/kg liver weight (1 mL total volume, 0.05% v/v total perfusate). Vehicle control (1 mL DMSO) was previously incorporated in the control liver perfusions (FIG. 6).
# Protein Analysis: Perfusate collected at the indicated time points was centrifuged at 5000 g and the plasma collected and stored at −80° C. for later analysis. Enzyme-linked immunosorbent assays (ELISA) were performed for various proteins according to manufacturers' guidelines.
# [5] = system: discarded DCD human livers; assay: RNA sequencing of liver biopsies during NMP (differential expression, IPA, GO)
# Description: RNA purification and sequencing: Core needle biopsies taken immediately prior to perfusion and after 3 and 6 hours of perfusion were used for transcriptome sequencing. […] The differential gene expression threshold for significance was set to a Benjamini-Hochberg false discovery rate (FDR)<0.05.
# In brief, tissues samples from livers taken immediately prior to perfusion and after 3 and 6 hours of perfusion were used for transcriptome sequencing. Core needle biopsies from the right liver lobe were collected in RNAlater solution (Sigma-Millipore, Waltham, MA, USA) and stored overnight at 4° C. Tissue samples were then removed from solution and stored at −80° C. Total RNA was isolated using the RNeasy Mini Kit (Qiagen, Germantown, MD, USA) according to manufacturer guidelines. 500 ng of each sample was sequenced on an Illumina HiSeq 4000 using 9 PCR cycles by GENEWIZ (South Plainfield, NJ, USA). Raw RNA-Seq data files were transferred to the Brown University computing cluster via sFTP and aligned to the human genome build 38 using STAR 2.7.3a (see, e.g., ref. 25). While sequencing was performed in two batches, the alignment was performed on all samples simultaneously using the same settings.
# In brief, raw read counts were normalized using the Trimmed Mean of M method following removal of low-count genes (fewer than 10 reads in the smallest library). Differential gene expression analysis was conducted in R (see, e.g., ref. 27) using edgeR (see, e.g., ref. 28). The significance cutoff for differential gene expression was set to a Benjamini-Hochberg false-discovery rate (FDR or q-value)<0.05. Canonical pathway and upstream regulator enrichment analysis was generated through Ingenuity Pathway Analysis (IPA, Qiagen) (see, e.g., ref. 29). […]
# Gene ontology (GO) enrichment analysis was performed using the R package GOseq (see, e.g., ref. 31). […] The genes with the highest amount of variance explained by principal component 1, 2, or 3 cumulatively totaling to 10% of the total variance explained by the specified PC were further analyzed.
# [6] = system: LT recipients; conditions: emricasan in preservation flush solution vs placebo group; cited from earlier work
# [7] = clinical trials for liver transplant and NASH; cited from earlier work
# [8] = system: discarded DCD human livers; assay: Normothermic machine perfusion (NMP) of discarded human livers with emricasan in the perfusate: hepatocellular and cholangiocellular function
# Text: Human liver perfusions: Sixteen human livers from donation after circulatory death, with consent for research, were included in this study after being turned down by all transplant centers in the respective region of procurement. Human livers were procured in standard fashion through two Organ Procurement Organizations (OPO): New England Donor Services (Waltham, MA, USA) and LiveOnNewYork (New York, NY). In addition, one liver was obtained through the International Institute for the Advancement of Medicine (IIAM, Edison, NJ), which originated from the Gift of Life Donor Program (Philadelphia, PA). Informed consent was obtained from donors by the OPO. The Massachusetts General Hospital and Lifespan Institutional Review Boards, as well as the two OPOs and IIAM, approved this study (No. 2011P001496). No organs were procured from prisoners and no vulnerable populations were included in this study.
# Procurement techniques based on donation after circulatory death followed standard methods. Donor livers were flushed in situ with University of Wisconsin solution. Total warm ischemic time was defined as the period from extubation to cold flush. Functional WIT was defined as the period from asystole to cold flush. Cold ischemic time was defined from cold flush to initiation of machine perfusion. All livers were transported via ground courier. After arrival to the laboratory under static cold storage, livers underwent standard back bench preparation for machine perfusion.
# Grafts were perfused on the Liver Assist device (Organ Assist, Groningen, Netherlands) using a previously described protocol (see, e.g., ref. 14). Briefly, perfusate composition consisted of O+ packed red blood cells, human albumin, Lactated Ringer's solution, and heparin. […] Perfusate, bile, and tissue biopsies were collected and analyzed at multiple time points. Grafts were assessed for adequate hepatocellular and cholangiocellular function. […] Cholangiocellular (biliary) viability metrics were measured according to van Leeuwen (see, e.g., ref. 15). […]
smiles,measurement,setting,value
C[C@H](NC(=O)C(=O)Nc1ccccc1C(C)(C)C)C(=O)N[C@@H](CC(=O)O)C(=O)COc1c(F)c(F)cc(F)c1F [emricasan],survival in rodent LT models,[1],improved
same,inflammatory infiltrate or necrosis (H&E histology),[2],no significant differences
same,shift of LC3B to granule staining pattern (immunohistochemistry),[3]; 3 and 6 hr of NMP,not observed
same,induction of necroptosis,[3]; NMP with emricasan,did not lead to induction of necroptosis
same,Phospho-MLKL,[3]; before and during perfusion,below the limit of detection
same,circulating cell-free DNA (DAMP),"[4]; NMP, compared to control groups",significantly reduced
same,perfusate caspase-3/7 enzyme activity,"[4]; NMP, vs control groups",significantly lower
same,perfusate level of cleaved cytokeratin 18,"[4]; NMP, vs control groups",significantly lower
same,evidence of apoptosis (circulating cleaved cytokeratin 18 and caspase-3/7 activity),[4]; after both 3 and 6 hours of NMP,significantly decreased
same,cell-free DNA in perfusate,[4]; at 1 and 6 hours of NMP,significantly lower
same,circulating interleukin-1β (IL-1β),[4]; compared only to IHF livers,lower
same,circulating tumor necrosis factor-α (TNFα),[4]; compared only to IHF livers,lower
same,perfusate interferon-γ (IFNG),[4]; compared to AHF and IHF groups,significantly lower
same,perfusate interleukin-6 (IL-6),[4]; compared to AHF and IHF groups,significantly lower
same,perfusate interleukin-8 (IL-8),[4]; compared to AHF and IHF groups,significantly lower
same,"enrichment of IRI canonical pathways (innate immunity, sinusoidal endothelial cell activation), IPA",[5]; 3 and 6 h vs pre-perfusion,minimal enrichment
same,differentially expressed genes after 3 and 6 hours of NMP vs pre-perfusion,[5]; compared to both control groups,markedly smaller set of DEGs
same,upregulation of pro-inflammatory and pro-death genes,[5]; compared to controls (viable and nonviable livers),decreased upregulation
same,AST and ALT levels in LT recipients,[6],significantly lower
same,safety and tolerance profile,[7],excellent
same,number of emricasan-treated livers demonstrating adequate hepatocellular function,"[8]; 5 livers treated, 5 mg/kg liver weight in perfusate, NMP",4
same,IRI in cholangiocytes / cholangiocellular function,[8]; end-ischemic NMP of DCD livers,did not appear to improve IRI in cholangiocytes
same,ischemia-reperfusion injury in hepatocytes,[8]; treatment during NMP after cold and warm ischemia,mitigated
